How the values were obtained:
Format in all cases: cell-based
[1] = system: MCF-7 cells (BAF155 and PABP1 biomarkers); test: EC50 assay: western blot of BAF155 and PABP1 biomarkers in MCF-7 cells; conditions: Homo sapiens, MCF7, 48 h, two days treatment
Procedure: (§1) 1˜2×10e^5 MCF-7 cells or MDA-MB-231 cells per were seeded into 6-well plate. Two days later, cells were treated with inhibitors or control for additional two days. Then cells were collected by trypsinization, washed with Dulbecco's phosphate buffer saline and lysed by suspension in lysis buffer. The suspension was kept on ice for 30 min to achieve complete lysis or the suspension can be sonicated to achieve complete lysis. After centrifugation, supernatant were collected and total protein was quantified, and western blot samples were prepared with the SDS sample buffer Proteins were transferred to a nitrocellulose membrane for 1.5 hr at 350 mA at cold room. Membranes were blocked with 5% nonfat milk dissolved in PBST at room temperature for 1 hour and incubated overnight with primary antibody diluted in 5% nonfat milk dissolved in PBST at 4° C. Membranes were then washed with PBST for 10 min/each three times, and incubated with HRP-conjugated secondary antibody for 1 hour at room temperature, and washed with PBST for 10 min/each three times, and then detected by ECL reaction and X-ray film exposure. BAF155 and PABP1 were used as biomarkers to determine the EC50 values.

[2] = system: HCC1954 breast cancer cells; test: Transwell invasion assay
Procedure: In another example, a compound's effect on cancer cell migration and invasion were evaluated in a transwell invasion assay. In one such example, addition of compound 6 in a concentration of 5 μM and 10 μM caused an approximately 50% and an approximately 75% reduction, respectively, of invasion of HCC1954 breast cancer cells in the assay.

[3] = system: MDA-MB-231 cells (BAF155 and PABP1 biomarkers); test: EC50 assay: western blot of BAF155 and PABP1 biomarkers in MDA-MB-231 cells; conditions: Homo sapiens, 48 h, two days treatment
Procedure: as §1

SMILES	EC50 [1] [µM]	reduction of invasion of HCC1954 breast cancer cells ([2]; concentration of 5 μM)	reduction of invasion of HCC1954 breast cancer cells ([2]; concentration of 10 μM)	EC50 [3] [µM]
COc1ccc(CCNC(=O)[C@@H](N)CC[C@H](CNCc2ccccc2)C[C@H]2O[C@@H](n3cnc4c(N)ncnc43)[C@@H](O)C2O)cc1 (stereo partly shown) [Example 1]	15			
CC(=O)Oc1cc(C)cc(C)c1C(C)(C)CC(=O)N[C@@H](CC[C@H](CNCc1ccccc1)C[C@H]1O[C@@H](n2cnc3c(N)ncnc32)[C@@H](O)C1O)C(=O)O (stereo partly shown) [Example 2]	10			
COc1ccc(CCNC(=O)[C@H](CC[C@H](CNCc2ccccc2)C[C@H]2O[C@@H](n3cnc4c(N)ncnc43)[C@@H](O)C2O)NC(=O)CC(C)(C)c2c(C)cc(C)cc2OC(C)=O)cc1 (stereo partly shown) [Example 3]	< 5			
CC1=CC(=O)C(C(C)(C)CC(=O)N[C@@H](CC[C@H](CNCc2ccccc2)C[C@H]2O[C@@H](n3cnc4c(N)ncnc43)[C@@H](O)C2O)C(=O)O)=CC1=O (stereo partly shown) [Example 4]	< 10			
COc1ccc(CCNC(=O)C(CC[C@H](CNCc2ccccc2)C[C@H]2O[C@@H](n3cnc4c(N)ncnc43)[C@@H](O)C2O)NC(=O)CC(C)(C)C2=C(C)C(=O)C(C)=C(C)C2=O)cc1 (stereo partly shown) [Example 6]		approximately 50%	approximately 75%	< 0.5

Reference: patent publication US12043645B2, “Adenosine analogs as methyltransferase inhibitors for treating cancer” (MEMORIAL SLOAN KETTERING CANCER CENTER, priority 2017, dated 2024)
